In ChEMBL document CHEMBL6103541, “Ringing medicinal chemistry: The importance of 3-membered rings in drug discovery” (Bioorg Med Chem, 2024):
Converted amounts (≈) assume the structure as drawn. *1 amine or outer side, *2 acyl side, *3 side chain or, on linkers, in order; H or OH if unused. Where a SMILES comes first, the peptide text is derived from it. [ ]: non-standard residue; d: D form. The star is where a group is joined. X1 = CCCC(N[*:1])C(=O)C(=O)[*:2]; Chg = N[C@H](C(=O)O)C1CCCCC1; Phg = N[C@H](C(=O)O)c1ccccc1; Boc = CC(C)(C)OC(=O)*

Tests used:
NS3 protease [1] = target: T1, NS3 protease (Hepacivirus C, UniProt C1KIQ2); test: Binding affinity to HCV NS3 protease assessed as inhibition constant; set-up: species or system Hepacivirus hominis
T1 sequence (C1KIQ2 whole entry): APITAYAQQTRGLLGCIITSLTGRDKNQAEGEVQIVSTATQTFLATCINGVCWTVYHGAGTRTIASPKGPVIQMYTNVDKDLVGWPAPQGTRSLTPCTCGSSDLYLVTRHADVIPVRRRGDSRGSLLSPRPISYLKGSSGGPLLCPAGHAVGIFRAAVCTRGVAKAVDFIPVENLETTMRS

[2] = target: Human immunodeficiency virus type 1 reverse transcriptase (Human immunodeficiency virus 1, UniProt Q72547); test: Inhibition of HIV-1 reverse transcriptase
NS3 protease [3] = target: T1, NS3 protease; test: Inhibition of Hepatitis C virus genotype 1b NS3 protease; set-up: species or system Hepacivirus hominis
NS3 protease [4] = target: T1, NS3 protease; test: Binding affinity to Hepatitis C virus genotype 1a NS3 protease assessed as inhibition constant; set-up: species or system Hepacivirus hominis
NS3 protease [5] = target: T1, NS3 protease; test: Binding affinity to Hepatitis C virus genotype 1b NS3 protease assessed as inhibition constant; set-up: species or system Hepacivirus hominis
SK-BR-3 = test: Antiproliferative activity against human SK-BR-3 cells; assay type: functional, cell-based
Staphylococcus aureus [6] = test: In vivo antibacterial activity against Staphylococcus aureus infected mouse model assessed as curative dose; assay type: functional
Staphylococcus aureus [7] = test: In vivo antibacterial activity against streptomycin-resistant Staphylococcus aureus infected mouse model assessed as curative dose; assay type: functional
Staphylococcus aureus [8] = test: In vivo antibacterial activity against erythromycin-resistant Staphylococcus aureus infected mouse model assessed as curative dose; assay type: functional
HPAC = test: Antiproliferative activity against human HPAC cells assessed as inhibition of cell growth measured after 72 hrs by MTT assay; assay type: functional, cell-based
Capan-2 = test: Antiproliferative activity against human Capan-2 cells assessed as reduction in cell viability incubated for 72 hrs by MTT assay; assay type: functional, cell-based; conditions: Capan-2, 72 h
Hepatitis C virus = test: Antiviral activity against Hepatitis C virus infected in human Huh7.5 cells assessed as reduction in viral replication; assay type: functional, Hepacivirus hominis
[9] = Half life in Wistar rat at 10 mg/kg, iv measured for 24 hrs by LC-MS/MS analysis; assay type: ADME, organism-based; conditions: in vivo
[10] = Volume of distribution at steady state in Wistar rat at 10 mg/kg, iv measured for 24 hrs by LC-MS/MS analysis; assay type: ADME, organism-based; conditions: in vivo
BT-549 = test: Cytotoxicity against human BT-549 cells assessed as inhibition of cell growth incubated for 72 hrs by MTT assay; assay type: functional, cell-based; conditions: BT-549, 72 h
MDA-MB-231 = test: Antiproliferative activity against human MDA-MB-231 cells assessed as reduction in cell viability incubated for 72 hrs by MTT assay; assay type: functional, cell-based; conditions: MDA-MB-231, 72 h
[11] = Inhibition of 20s constitutive proteasome beta-5c (unknown origin); set-up: species or system Homo sapiens
[12] = test system: Staphylococcus epidermidis; test: microbe, parasite or virus in culture
Description: Antibacterial activity against Staphylococcus epidermidis

[13] = test system: Staphylococcus saprophyticus; test: microbe, parasite or virus in culture
Description: Antibacterial activity against Staphylococcus saprophyticus

Staphylococcus aureus [14] = test: microbe, parasite or virus in culture
Description: Antibacterial activity against Methicillin-resistant staphylococcus aureus

MCF7 = test: Antiproliferative activity against human MCF7 cells assessed as reduction in cell viability incubated for 48 hrs by MTT assay; assay type: functional, cell-based; conditions: MCF7, 48 h
SK-N-FI = test: Antiproliferative activity against human SK-N-FI cells; assay type: functional, cell-based
[15] = target: Vascular endothelial growth factor receptor 1 (Homo sapiens, UniProt P17948); test: Inhibition of VEGFR1 (unknown origin)
Chain of Vascular endothelial growth factor receptor 1 (P17948 whole entry): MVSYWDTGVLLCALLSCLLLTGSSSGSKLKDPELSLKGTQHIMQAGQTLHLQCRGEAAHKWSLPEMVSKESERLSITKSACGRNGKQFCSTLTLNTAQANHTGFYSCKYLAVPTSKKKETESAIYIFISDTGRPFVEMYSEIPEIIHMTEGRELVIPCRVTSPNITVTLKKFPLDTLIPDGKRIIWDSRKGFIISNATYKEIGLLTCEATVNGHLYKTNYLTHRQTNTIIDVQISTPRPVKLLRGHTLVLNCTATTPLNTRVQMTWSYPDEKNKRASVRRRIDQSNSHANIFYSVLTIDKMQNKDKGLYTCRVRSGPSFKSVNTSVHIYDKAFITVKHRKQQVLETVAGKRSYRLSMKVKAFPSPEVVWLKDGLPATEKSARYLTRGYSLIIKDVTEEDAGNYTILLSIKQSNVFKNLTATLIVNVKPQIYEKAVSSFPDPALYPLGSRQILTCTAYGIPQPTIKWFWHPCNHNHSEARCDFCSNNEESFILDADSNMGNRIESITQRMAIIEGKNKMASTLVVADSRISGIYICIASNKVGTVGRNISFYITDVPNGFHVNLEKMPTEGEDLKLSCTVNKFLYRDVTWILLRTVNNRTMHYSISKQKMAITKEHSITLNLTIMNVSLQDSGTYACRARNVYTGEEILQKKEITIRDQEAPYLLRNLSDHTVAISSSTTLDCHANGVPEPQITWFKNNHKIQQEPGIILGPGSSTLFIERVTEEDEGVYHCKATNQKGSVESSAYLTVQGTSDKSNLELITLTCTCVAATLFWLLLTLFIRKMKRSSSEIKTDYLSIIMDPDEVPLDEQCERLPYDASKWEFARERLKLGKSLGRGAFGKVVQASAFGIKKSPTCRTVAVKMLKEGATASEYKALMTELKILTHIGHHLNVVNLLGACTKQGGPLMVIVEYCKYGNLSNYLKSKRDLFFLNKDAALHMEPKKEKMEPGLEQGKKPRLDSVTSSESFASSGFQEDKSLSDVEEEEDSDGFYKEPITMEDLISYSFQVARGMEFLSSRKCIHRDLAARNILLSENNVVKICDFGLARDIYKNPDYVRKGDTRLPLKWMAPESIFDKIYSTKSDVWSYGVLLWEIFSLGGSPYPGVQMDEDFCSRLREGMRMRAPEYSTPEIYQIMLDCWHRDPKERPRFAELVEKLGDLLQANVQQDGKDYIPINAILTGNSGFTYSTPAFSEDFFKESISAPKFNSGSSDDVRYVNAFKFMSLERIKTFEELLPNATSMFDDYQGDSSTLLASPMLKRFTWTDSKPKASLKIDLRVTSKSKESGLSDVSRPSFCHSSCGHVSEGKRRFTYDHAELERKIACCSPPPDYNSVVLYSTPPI

[16] = target: Vascular endothelial growth factor receptor 3 (Homo sapiens, UniProt P35916); test: Inhibition of VEGFR3 (unknown origin)
Chain of Vascular endothelial growth factor receptor 3 (P35916 whole entry): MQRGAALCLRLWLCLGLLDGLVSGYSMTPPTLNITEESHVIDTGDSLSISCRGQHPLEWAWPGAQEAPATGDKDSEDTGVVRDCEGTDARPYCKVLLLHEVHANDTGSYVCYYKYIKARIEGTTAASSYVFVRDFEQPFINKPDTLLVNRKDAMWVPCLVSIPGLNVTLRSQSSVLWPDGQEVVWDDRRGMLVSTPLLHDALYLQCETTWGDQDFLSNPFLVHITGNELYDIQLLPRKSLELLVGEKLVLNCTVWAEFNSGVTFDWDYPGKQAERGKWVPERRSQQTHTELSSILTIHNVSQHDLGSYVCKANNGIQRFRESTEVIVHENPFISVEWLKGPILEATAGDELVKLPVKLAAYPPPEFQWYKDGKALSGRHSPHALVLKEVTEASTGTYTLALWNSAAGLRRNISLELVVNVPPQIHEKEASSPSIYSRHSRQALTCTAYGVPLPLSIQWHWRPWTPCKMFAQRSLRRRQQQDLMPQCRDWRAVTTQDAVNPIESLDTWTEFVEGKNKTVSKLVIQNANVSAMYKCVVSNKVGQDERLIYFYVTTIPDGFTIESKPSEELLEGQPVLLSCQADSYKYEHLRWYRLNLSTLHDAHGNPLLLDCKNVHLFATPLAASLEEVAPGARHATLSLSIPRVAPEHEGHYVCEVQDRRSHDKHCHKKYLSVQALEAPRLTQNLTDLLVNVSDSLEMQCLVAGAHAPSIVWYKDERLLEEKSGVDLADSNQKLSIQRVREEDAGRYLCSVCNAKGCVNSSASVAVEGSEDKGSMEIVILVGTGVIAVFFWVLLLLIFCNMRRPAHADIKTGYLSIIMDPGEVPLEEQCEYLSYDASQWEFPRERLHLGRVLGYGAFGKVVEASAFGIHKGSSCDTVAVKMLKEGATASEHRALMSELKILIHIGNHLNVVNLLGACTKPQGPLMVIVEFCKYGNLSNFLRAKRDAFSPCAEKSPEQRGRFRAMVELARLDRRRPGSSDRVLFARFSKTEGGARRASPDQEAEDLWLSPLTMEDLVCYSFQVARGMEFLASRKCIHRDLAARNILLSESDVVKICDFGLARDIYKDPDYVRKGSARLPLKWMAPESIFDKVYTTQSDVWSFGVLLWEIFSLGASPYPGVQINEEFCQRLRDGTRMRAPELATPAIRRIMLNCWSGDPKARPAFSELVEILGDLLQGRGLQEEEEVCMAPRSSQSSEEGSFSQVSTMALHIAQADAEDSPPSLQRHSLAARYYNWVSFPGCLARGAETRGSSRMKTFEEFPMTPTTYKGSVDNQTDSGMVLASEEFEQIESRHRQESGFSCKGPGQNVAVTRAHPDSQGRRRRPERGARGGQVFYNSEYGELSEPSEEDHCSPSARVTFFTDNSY

[17] = target: Fibroblast growth factor receptor 1 (Homo sapiens, UniProt P11362); test: Inhibition of FGFR1 (unknown origin)
[18] = target: Fibroblast growth factor receptor 3 (Homo sapiens, UniProt P22607); test: Inhibition of FGFR3 (unknown origin)
Chain of Fibroblast growth factor receptor 3 (P22607 whole entry): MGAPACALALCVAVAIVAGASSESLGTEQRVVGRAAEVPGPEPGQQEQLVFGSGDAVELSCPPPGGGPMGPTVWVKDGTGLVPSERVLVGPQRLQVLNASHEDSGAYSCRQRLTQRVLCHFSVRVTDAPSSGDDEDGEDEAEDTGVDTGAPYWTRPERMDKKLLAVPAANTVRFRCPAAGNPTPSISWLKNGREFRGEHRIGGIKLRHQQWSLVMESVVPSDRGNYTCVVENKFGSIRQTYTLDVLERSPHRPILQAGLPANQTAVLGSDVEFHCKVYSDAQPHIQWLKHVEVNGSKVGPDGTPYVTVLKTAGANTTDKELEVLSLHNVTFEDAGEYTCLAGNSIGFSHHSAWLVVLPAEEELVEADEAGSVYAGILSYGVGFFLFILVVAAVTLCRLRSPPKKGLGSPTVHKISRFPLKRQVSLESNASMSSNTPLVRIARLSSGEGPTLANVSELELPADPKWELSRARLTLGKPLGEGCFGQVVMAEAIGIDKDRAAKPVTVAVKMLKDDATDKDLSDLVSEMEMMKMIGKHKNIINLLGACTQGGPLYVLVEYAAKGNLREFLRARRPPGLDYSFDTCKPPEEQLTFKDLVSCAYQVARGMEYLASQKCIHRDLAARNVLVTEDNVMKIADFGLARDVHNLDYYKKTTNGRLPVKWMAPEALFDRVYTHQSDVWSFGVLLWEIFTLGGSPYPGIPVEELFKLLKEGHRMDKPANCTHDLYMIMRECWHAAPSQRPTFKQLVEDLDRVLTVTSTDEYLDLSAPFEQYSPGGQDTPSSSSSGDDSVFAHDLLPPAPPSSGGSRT

[19] = target: Fibroblast growth factor receptor 4 (Homo sapiens, UniProt P22455); test: Inhibition of FGFR4 (unknown origin)
Chain of Fibroblast growth factor receptor 4 (P22455 whole entry): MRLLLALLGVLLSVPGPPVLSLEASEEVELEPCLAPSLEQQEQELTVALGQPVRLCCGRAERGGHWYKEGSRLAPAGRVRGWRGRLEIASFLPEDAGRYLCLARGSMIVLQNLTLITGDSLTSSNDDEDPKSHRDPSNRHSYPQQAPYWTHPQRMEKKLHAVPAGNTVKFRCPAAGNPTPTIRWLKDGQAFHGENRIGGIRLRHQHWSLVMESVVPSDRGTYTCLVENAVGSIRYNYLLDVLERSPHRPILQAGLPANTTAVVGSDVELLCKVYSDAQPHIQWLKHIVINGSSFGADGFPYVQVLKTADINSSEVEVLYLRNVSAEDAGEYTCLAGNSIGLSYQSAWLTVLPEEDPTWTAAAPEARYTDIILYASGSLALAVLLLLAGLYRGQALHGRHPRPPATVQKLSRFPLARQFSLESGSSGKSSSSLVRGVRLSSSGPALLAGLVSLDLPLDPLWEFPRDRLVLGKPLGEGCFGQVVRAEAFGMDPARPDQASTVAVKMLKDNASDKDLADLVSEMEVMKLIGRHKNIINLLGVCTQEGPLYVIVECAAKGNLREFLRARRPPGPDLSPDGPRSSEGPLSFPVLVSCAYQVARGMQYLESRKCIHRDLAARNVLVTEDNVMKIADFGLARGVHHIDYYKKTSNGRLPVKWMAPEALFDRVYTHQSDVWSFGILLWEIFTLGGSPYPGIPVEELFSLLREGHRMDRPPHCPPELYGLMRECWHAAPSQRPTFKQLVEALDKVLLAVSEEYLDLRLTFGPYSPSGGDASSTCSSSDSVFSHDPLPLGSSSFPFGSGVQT

[20] = Inhibition of PDGFR (unknown origin); set-up: species or system Homo sapiens
SCaBER = test: Antiproliferative activity against human SCaBER cells; assay type: functional, cell-based
J82 = test: Antiproliferative activity against human J82 cells; assay type: functional, cell-based
[21] = Inhibition of PK1 (unknown origin); set-up: species or system Homo sapiens
Staphylococcus aureus [22] = test: Antibacterial activity against Staphylococcus aureus; assay type: functional
Thermus thermophilus = test: Antibacterial activity against Thermus thermophilus; assay type: functional, organism-based
Staphylococcus aureus [23] = test: Antibacterial activity against Staphylococcus aureus ATCC 25923 assessed as bacterial growth inhibition measured after 18 hrs by CLSI protocol based two-fold serial microdilution method; assay type: functional
Streptococcus pneumoniae = test: Antibacterial activity against Streptococcus pneumoniae ATCC 49619 assessed as inhibition of bacterial growth incubated for 24 hrs by CLSI protocol based broth micro-dilution method; assay type: functional
Pseudomonas aeruginosa = test: Antibacterial activity against Pseudomonas aeruginosa ATCC 15442 assessed as reduction in bacterial cell growth incubated for 18 hrs by two fold serial microdilution method; assay type: functional
Escherichia coli = test: Antibacterial activity against Escherichia coli assessed as reduction in bacterial growth by broth microdilution method; assay type: functional
Tubulin = test: Inhibition of tubulin polymerization (unknown origin); assay type: protein-complex assay, Homo sapiens
[24] = Inhibition of LPS-induced NFkappaB activation in mouse RAW264.7 cells assessed as inhibition of IKKalpha phosphorylation level incubated for 1 hrs by Western blot analysis; assay type: cell-based; conditions: RAW264.7, 1 h

CCN1c2ncccc2C(=O)Nc2c(C)ccnc21
Ki (NS3 protease [1]): 10 nM | IC50 [2]: 30 nM

COc1ccc2c(O[C@@H]3C[C@H]4C(=O)N[C@]5(C(=O)NS(=O)(=O)C6CC6)C[C@H]5/C=C\CCCCN(C)C(=O)[C@@H]4C3)cc(-c3nc(C(C)C)cs3)nc2c1C
IC50 (NS3 protease [3]): 8 nM | Ki (NS3 protease [4]): 0.5 nM | Ki (NS3 protease [5]): 0.4 nM

COc1cc2cc(c1Cl)N(C)C(=O)C[C@H](OC(=O)[C@@H](C)N(C)C(=O)CCS)[C@]1(C)O[C@H]1[C@H](C)[C@@H]1C[C@@](O)(NC(=O)O1)[C@H](OC)/C=C/C=C(\C)C2
IC50 (SK-BR-3): 1.1 nM

CC(C)[C@H](N)C(=O)N[C@H](C(=O)O)[C@@H]1C[C@H](NC(=N)N)[C@@H]2CN21 (some centres not stated)
CD50 (Staphylococcus aureus [6]): 7.6 mg/kg | CD50 (Staphylococcus aureus [7]): 10 mg/kg | CD50 (Staphylococcus aureus [8]): 11 mg/kg

CCn1c(-c2cc(N3CCN(C)CC3)cnc2[C@H](C)OC)c2c3cc(ccc31)-c1csc(n1)C[C@H](NC(=O)[C@H]1C[C@@H]1C)C(=O)N1CCC[C@H](N1)C(=O)OCC(C)(C)C2
IC50 (HPAC): 1.2 nM | IC50 (Capan-2): 1.4 nM

COc1ccc2c(O[C@@H]3C[C@H]4C(=O)N[C@]5(C(=O)O)C[C@H]5/C=C/CCCCC[C@H](NC(=O)OC5CCCC5)C(=O)N4C3)cc(-c3csc(NC(C)C)n3)cc2c1
IC50 (NS3 protease [3]): 3 nM | Ki (NS3 protease [4]): 0.3 nM | Ki (NS3 protease [5]): 3 nM

CCCC(NC(=O)[C@H](CC(C)C)NC(=O)[C@@H](NC(=O)OC(C)(C)C)C1CCCCC1)C(=O)C(=O)NCC(=O)N[C@H](C(N)=O)c1ccccc1 (some centres not stated) (Boc-[Chg]L[X1]G[Phg]-NH2)
Ki (NS3 protease [1]): 66 nM | EC90 (Hepatitis C virus): 200 nM

CC[C@@H]1C(=O)N(C)c2cnc(Nc3ccc(C(=O)NC4CCN(C)CC4)cc3OC)nc2N1C1CCCC1 [BI-2536]
half-life [9]: < 50 h | Vd [10]: 750 L

CC(C)(C)NC(=O)N[C@H](C(=O)N1C[C@H]2[C@@H]([C@H]1C(=O)NC(CC1CCC1)C(=O)C(N)=O)C2(C)C)C(C)(C)C (some centres not stated) [BOCEPREVIR]
Ki (NS3 protease [1]): 14 nM | EC90 (Hepatitis C virus): 350 nM

CC(C)C[C@H](NC(=O)[C@H](CCc1ccccc1)NC(=O)CN1CCOCC1)C(=O)N[C@@H](Cc1ccccc1)C(=O)N[C@@H](CC(C)C)C(=O)[C@@]1(C)CO1 [CARFILZOMIB]
IC50 (BT-549): 10.8 nM | IC50 (MDA-MB-231): 22.4 nM | IC50 [11]: 6 nM

O=C(O)c1cn(C2CC2)c2cc(N3CCNCC3)c(F)cc2c1=O [CIPROFLOXACIN]
MIC [12]: < 1 µg/mL | MIC [13]: < 1 µg/mL | MIC (Staphylococcus aureus [14]): 0.12 µg/mL (≈ 0.362 µM)

C[C@]12C[C@H]3S[C@H]3C[C@@H]1CC[C@@H]1[C@@H]2CC[C@]2(C)[C@@H](O)CC[C@@H]12 [EPITIOSTANOL]
IC50 (MCF7): 30 nM

C/C1=C/C[C@@H](/C(C)=C/c2csc(C)n2)OC(=O)C[C@H](O)C(C)(C)C(=O)[C@H](C)[C@@H](O)[C@@H](C)CCC1 [EPOTHILONE D]
IC50 (SK-N-FI): 46 nM

C/C(=C\c1csc(C)n1)[C@@H]1C[C@@H]2O[C@]2(C)CCC[C@H](C)[C@H](O)[C@@H](C)C(=O)C(C)(C)[C@@H](O)CC(=O)N1 [IXABEPILONE]
IC50 (SK-N-FI): 10 nM

COc1cc2nccc(Oc3ccc(NC(=O)NC4CC4)c(Cl)c3)c2cc1C(N)=O [LENVATINIB]
IC50 [15]: 2 nM | IC50 [16]: 2 nM | IC50 [17]: 27 nM | IC50 [18]: 27 nM | IC50 [19]: 27 nM | IC50 [20]: 29 nM

CO[C@@]12[C@H](COC(N)=O)C3=C(C(=O)C(C)=C(N)C3=O)N1C[C@@H]1N[C@@H]12 [MITOMYCIN]
IC50 (SCaBER): 1500 nM | IC50 (J82): 300 nM | IC50 [21]: 287 nM

C/C(=C\C(=O)OCCCCCCCCC(=O)O)C[C@@H]1OC[C@H](C[C@@H]2O[C@H]2[C@@H](C)[C@H](C)O)[C@@H](O)[C@H]1O [MUPIROCIN]
MIC (Staphylococcus aureus [22]): 0.1 µg/mL (≈ 0.2 µM) | IC50 (Thermus thermophilus): 900 nM

CCn1cc(C(=O)O)c(=O)c2cc(F)c(N3CCNCC3)cc21 [NORFLOXACIN]
MIC (Staphylococcus aureus [23]): ≤ 0.06 µg/mL | MIC (Streptococcus pneumoniae): ≤ 0.06 µg/mL | MIC (Pseudomonas aeruginosa): ≤ 0.06 µg/mL | MIC (Escherichia coli): ≤ 0.06 µg/mL

COC[C@H](NC(=O)c1cnc(C)s1)C(=O)N[C@@H](COC)C(=O)N[C@@H](Cc1ccccc1)C(=O)[C@@]1(C)CO1 [OPROZOMIB]
IC50 (BT-549): 50 nM | IC50 (MDA-MB-231): 79 nM | IC50 [11]: 36 nM

C/C(=C\c1csc(C)n1)[C@@H]1C[C@@H]2O[C@]2(C)CCC[C@H](C)[C@H](O)[C@@H](C)C(=O)C(C)(C)[C@@H](O)CC(=O)O1 [PATUPILONE]
IC50 (Tubulin): 1.8 nM | IC50 (SK-N-FI): 10 nM

CC[C@@H]1C(=O)N(C)c2cnc(Nc3ccc(C(=O)N[C@H]4CC[C@H](N5CCN(CC6CC6)CC5)CC4)cc3OC)nc2N1C(C)C [VOLASERTIB]
half-life [9]: > 110 h | Vd [10]: > 4000 L

CC1=C(CO)C(=O)O[C@@H]([C@@H](C)[C@H]2CC[C@H]3[C@@H]4C[C@H]5O[C@]56[C@@H](O)C=CC(=O)[C@]6(C)[C@H]4CC[C@]23C)C1 [WITHAFERIN A]
IC50 [24]: 250 nM
